The IC50 is the concentration at which inhibition is half-maximal. A lower IC50 goes with inhibition by little substance. A word on the AUC(0-inf): it is the area under the concentration-time curve extrapolated to infinity. A low value points to low exposure. In general, Cmax refers to the maximum level reached in the sampled fluid or tissue. As a reminder, the bioavailability is the share of a dose that reaches the circulation, judged against a reference dose that is usually intravenous. Lower therefore signals little systemic uptake. The half-life is how long it takes for the measured level to halve.

Here are results for 18 compounds from US20240174692A1, “PYRIMIDINE AROMATIC RING COMPOUNDS” (Medshine Discovery Inc., priority 2021, published 2024).

Where a name gives a salt, the structure may show the parent alone.

The target of data set [1] is KRAS^G12D binding to c-Raf (Homo sapiens (Human), UniProt P01116, G12D). Put plainly: SOS1-mediated binding of KRAS^G12D to effector protein c-Raf (TR-FRET). Type of data set: biochemical. Background: TR-FRET usually uses a lanthanide donor and a delayed reading to cut background.
Chain of KRAS^G12D binding to c-Raf (P01116-2 other isoform, or with tags, fused parts or gaps G12D): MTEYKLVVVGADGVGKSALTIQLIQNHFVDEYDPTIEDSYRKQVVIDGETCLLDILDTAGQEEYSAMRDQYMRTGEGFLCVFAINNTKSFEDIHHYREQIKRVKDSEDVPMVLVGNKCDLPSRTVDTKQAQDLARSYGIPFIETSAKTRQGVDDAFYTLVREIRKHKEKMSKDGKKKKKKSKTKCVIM
Data set [2] has as its system p-ERK in GP2D cells. Put plainly: Assay of p-ERK inhibition in GP2D cells (HTRF). The format is cell-based. Conditions: Homo sapiens, 1 hour incubation. As to the method:
2. Assay Process • 1) GP2D cells were inoculated in a transparent 96-well cell culture plate, and each well contained 80 μL of cell suspension and 8000 cells. The cell plate was inoculated in a carbon dioxide incubator at 37° C. overnight; • 2) 2 μL of the compound was weighed and added to 78 μL of the cell medium. After the mixture was mixed thoroughly, 20 μL of the solution of compound was weighed and added to the corresponding well of the cell plate. The cell plate was placed back to the carbon dioxide incubator and incubated for another 1 hour; • 3) After completion of the incubation, the cell supernatant was discarded. 50 μL of 1× cell lysate was added to each well. The mixture was incubated with shaking at room temperature for 30 minutes; • 4) Phospho-ERK1/2 Eu Cryptate antibody and Phospho-ERK1/2 d2 antibody were diluted 20-fold with detection buffer; • 5) 16 μL of cell lysate supernatant was weighed and added into each well of a new 384 white microwell plate, and then 2 μL of the diluted solution of Phospho-ERK1/2 Eu Cryptate antibody and 2 μL of the diluted solution of Phospho-ERK1/2 d2 antibody dilution were added. The mixture was incubated at room temperature for at least 4 hours; • 6) After completion of the incubation, HTRF was read with multi-label analyzer: excitation: 320 nm, emission: 615 nm, 665 nm; • 7). IC50 of the compounds to be assayed was calculated.

In data set [3] the target is KRAS^G12D (Homo sapiens (Human), UniProt P01116, G12D). Put plainly: Assay of the activity of inhibiting KRAS^G12D (TR-FRET, SOS/GTP nucleotide exchange). Type of data set: biochemical.
Chain of KRAS^G12D (P01116-2 other isoform, or with tags, fused parts or gaps G12D): as above
Data set [4] deals with p-ERK in AGS cells. Kind of data set: Assay of p-ERK inhibition in AGS cells (HTRF). The format is cell-based. Conditions: Homo sapiens, 3 hours incubation. As to the method:
1) AGS cells were inoculated in a transparent 96-well cell culture plate, and each well contained 80 μL of cell suspension and 10000 cells. The cell plate was inoculated in a carbon dioxide incubator at 37° C. overnight; • 2) After completion of the incubation, the cell supernatant was discarded. 80 μL of medium containing 0.02% serum was added to each well. The cell plate was incubated in a carbon dioxide incubator at 37° C. overnight; • 3) 2 μL of the compound was weighed and added to 78 μL of the cell medium. After the mixture was mixed thoroughly, 20 μL of the solution of compound was weighed and added to the corresponding well of the cell plate. The cell plate was placed back to the carbon dioxide incubator and incubated for another 3 hours; • 4) After completion of the incubation, the cell supernatant was discarded. 50 μL of 1× cell lysate was added to each well. The mixture was incubated with shaking at room temperature for 30 minutes; • 5) Phospho-ERK1/2 Eu Cryptate antibody and Phospho-ERK1/2 d2 antibody were diluted 20-fold with detection buffer; • 6) 16 μL of cell lysate supernatant was weighed and added into each well of a new 384 white microwell plate, and then 2 μL of the diluted solution of Phospho-ERK1/2 Eu Cryptate antibody and 2 μL of the diluted solution of Phospho-ERK1/2 d2 antibody dilution were added. The mixture was incubated at room temperature for at least 4 hours; • 7) After completion of the incubation, HTRF was read with multi-label analyzer: excitation: 320 nm, emission: 615 nm, 665 nm; • 8). IC50 of the compounds to be assayed was calculated.

The test system of data set [5] is KRAS G12D mutated GP2D cells. Put plainly: Assay of inhibition of GP2D cell proliferation (CellTiter-Glo 3D). Conditions: Homo sapiens, 120 h, 5 days. The format is cell-based. As for the experimental part: The aim of this assay was to verify the inhibitory effect of the compounds of the present disclosure on the proliferation of KRAS G12D mutated GP2D human […] cancer cells.
Cell line GP2D, DMEM medium, and penicillin/streptomycin antibiotics were purchased from Wisent; fetal bovine serum was purchased from Biosera; and CellTiter-Glo® 3D Cell Viability Assay (3D cell viability chemiluminescence assay reagent) reagent was purchased from Promega.
GP2D cells were seeded in a 96-well U-bottom cell culture plate. Each well contained 80 μL of cell suspension containing 2000 GP2D cells. The cell plate was incubated overnight in a CO2 incubator. The compound to be assayed was serially diluted 5-fold with a pipette to the 8th concentration, i.e. diluted from 200 μM to 2.56 nM, to set up a double replicate well assay. 78 μL of medium was added to the middle plate, and then 2 μL per well of the gradient dilution compound was transferred to the middle plate according to the corresponding position. The mixture was mixed well and 20 μL per well was transferred to the cell plate. The concentration of compound transferred to the cell plate ranged from 1 μM to 0.0128 nM. The cell plate was incubated in a CO2 incubator for 5 days. At the end of the incubation of the plate with compounds added, 100 μL of cell viability chemiluminescence detection reagent per well was added to the plate and the plate was incubated at room temperature for 10 minutes to stabilize the luminescence signal. Reading was performed using a multi-label analyzer.
The raw data were converted into an inhibition rate by using an equation (Sample−Min)/(Max−Min)*100%. IC50 value can be obtained by curve fitting with four parameters (“log(inhibitor) vs. response—Variable slope” model in GraphPad Prism).

Data set [6] is described as follows: Pharmacokinetic evaluation of compounds in mice. The format is in vivo, CD-1 mice. Conditions: CD-1 male mice, PO, 5.54 mg/kg. As for the experimental part:
Purpose of assay: To assay the pharmacokinetic data of the compounds in CD-1 mice in vivo.
Compounds were mixed with vehicle 5% DMSO/95% (10% HP-β-CD aqueous solution), and the mixture was vortexed and sonicated to give 0.2 mg/mL-0.3 mg/mL clear solutions. CD-1 male mice aged 7 to 10 weeks were selected, and the candidate compound solution was administered intravenously. Whole blood was collected for a certain period of time to prepare the plasma. The drug concentration was analyzed by LC-MS/MS method and pharmacokinetic parameters were calculated by Phoenix WinNonlin software (Pharsight, USA).
Compounds were mixed with vehicle 5% DMSO/95% (10% HP-β-CD in water), and the mixture was vortexed and sonicated to give 1.6 mg/mL to 4.0 mg/mL clear solutions. CD-1 male mice aged 7 to 10 weeks were selected, and the candidate compound solution was orally administered. Whole blood was collected for a certain period of time to prepare plasma. The drug concentration was analyzed by LC-MS/MS method, and pharmacokinetic parameters were calculated by Phoenix WinNonlin software (Pharsight, USA).

As to `C#Cc1c(F)ccc2cc(N)cc(-c3c(Cl)cc4c(N5CC6CCC(C5)N6)nc(OC[C@@]56CCCN5C[C@H](F)C6)nc4c3F)c12` (single isomer, unassigned) [Compound 016B], the IC50 in data set [1] was determined as 6.23 nM; in data set [2], 0.67 nM.

In data set [3], `Oc1cc(-c2c(Cl)cc3c(N4CC5CCC(C4)N5)nc(OC[C@@]45CCCN4C[C@H](F)C5)nc3c2F)c2ccccc2c1` (single isomer, unassigned) [Compound 027 hydrochloride] gave a half-maximal inhibitory concentration (IC50) of 38.6 nM. In the case of `Oc1cc(-c2c(Cl)cc3c(N4CC5CCC(C4)N5)nc(OC[C@@]45CCCN4C[C@H](F)C5)nc3c2F)c2ccccc2c1` [Compound 001 formate], the IC50 in data set [4] turned out to be 292 nM; in data set [3] it was 9.2 nM.

In the case of `Nc1nc2c(-c3c(Cl)cc4c(N5CC6CCC(C5)N6)nc(OC[C@@]56CCCN5C[C@H](F)C6)nc4c3F)ccc(F)c2s1` [Compound 004], the half-maximal inhibitory concentration (IC50) in data set [4] was 31.4 nM; in data set [3], 0.5 nM.

`Oc1cc(-c2ccc3c(N4CC5CCC(C4)N5)nc(OC[C@@]45CCCN4C[C@H](F)C5)nc3c2F)c2ccccc2c1` [Compound 005 hydrochloride]: the IC50 in data set [4] worked out at 147 nM; in data set [3] it was 0.1 nM.

Regarding `CCc1c(F)ccc2cc(O)cc(-c3ccc4c(N5CC6CCC(C5)N6)nc(OC[C@@]56CCCN5C[C@H](F)C6)nc4c3F)c12` [Compound 006 hydrochloride], the IC50 in data set [5] is 2.04 nM; in data set [4], 67.1 nM.

`Nc1nc2c(-c3c(F)cc4c(N5CC6CCC(C5)N6)nc(OC[C@@]56CCCN5C[C@H](F)C6)nc4c3Cl)ccc(F)c2s1` [Compound 007 hydrochloride] gave an IC50 in data set [3] of 0.4 nM. `Oc1cc(-c2c(F)cc3c(N4CC5CCC(C4)N5)nc(OC[C@@]45CCCN4C[C@H](F)C5)nc3c2Cl)c2ccccc2c1` [Compound 008 hydrochloride] displayed an IC50 in data set [3] of 1.3 nM.

In the case of `C#Cc1c(F)ccc2cc(O)cc(-c3ccc4c(N5CC6CCC(C5)N6)nc(OC[C@@]56CCCN5C[C@H](F)C6)nc4c3F)c12` [Compound 010 hydrochloride], half-maximal inhibition in data set [5] (IC50) required 3.6 nM. Further, the 50% inhibitory concentration (IC50) in data set [2] is 0.055 nM. Besides, in data set [6] (AUCu = AUC0-inf *Unbound PPB (Mouse)), the AUCu was found to be 0.0025 µM·h. In data set [6] (mouse, plasma), this compound showed an AUC(0-inf) of 0.125 µM·h, a Cmax of 54 nM, a bioavailability of 5.1% and a half-life of 1.6 h.

For the compound `Oc1cc(-c2ccc3c(N4CC5CCC(C4)N5)nc(OC[C@@]45CCCN4C[C@H](F)C5)nc3c2F)c2c(F)c(F)ccc2c1` [Compound 011 hydrochloride], the IC50 in data set [5] was determined as 6.2 nM; in data set [2], 0.016 nM.

`N#Cc1c(N)sc2c(F)ccc(-c3c(Cl)cc4c(N5CC6CCC(C5)N6)nc(OC[C@@]56CCCN5C[C@H](F)C6)nc4c3F)c12` [Compound 012 formate]: the figures for the IC50 in data set [5] and in data set [2] were 0.94 nM and 0.71 nM, respectively. As to `Nc1cc(-c2ccc3c(N4CC5CCC(C4)N5)nc(OC[C@@]45CCCN4C[C@H](F)C5)nc3c2F)c2c(F)c(F)ccc2c1` [Compound 013 hydrochloride], the 50% inhibitory concentration (IC50) in data set [2] came to 0.88 nM. In turn, `Cc1cc(N)nc(-c2c(Cl)cc3c(N4CC5CCC(C4)N5)nc(OC[C@@]45CCCN4C[C@H](F)C5)nc3c2F)c1C(F)(F)F` [Compound 018 trifluoroacetate] had an IC50 in data set [2] of 1.6 nM. With `Cc1cc(N)nc(-c2ccc3c(N4CC5CCC(C4)N5)nc(OC[C@@]45CCCN4C[C@H](F)C5)nc3c2F)c1C(F)(F)F` [Compound 019 hydrochloride], the IC50 in data set [2] was determined as 21.4 nM. Consider `Nc1nc2c(-c3c(F)cc4c(N5CC6CCC(C5)N6)nc(OC[C@@]56CCCN5C[C@H](F)C6)nc4c3F)ccc(F)c2s1` [Compound 020 formate], for which, in data set [3], the IC50 came out at 6.6 nM. As to `Cc1cc(N)c(F)c(-c2c(Cl)cc3c(N4CC5CCC(C4)N5)nc(OC[C@@]45CCCN4C[C@H](F)C5)nc3c2F)c1C(F)(F)F` [Compound 022 formate], it took 11.6 nM to reach half-maximal inhibition in data set [2] (IC50). With `CCc1c(F)ccc2cc(O)cc(-c3ccc4c(N5CC6CCC(C5)N6)nc(OC[C@@]56CCCN5C[C@H](F)C6)nc4c3Cl)c12` [Compound 024 formate], the half-inhibitory concentration (IC50) in data set [5] was found to be 16 nM; in data set [2] it was 4.4 nM.

For `C#Cc1c(F)ccc2cc(N)cc(-c3c(F)cc4c(N5CC6C=CC(C5)N6)nc(OC[C@@]56CCCN5C[C@H](F)C6)nc4c3F)c12` [Compound 034], in data set [1], the IC50 was determined as 22.5 nM.
